Measured values published in ChEMBL document CHEMBL1201861, “Genomics of Drug Sensitity in Cancer screening data, Wellcome Trust Sanger Institute”.

Key:
Assay in all cases: cells
NB5 = format: functional, cell-based, Homo sapiens; details: Homo sapiens, NB5
Description: SANGER: Inhibition of human NB5 cell growth in a cell viability assay.

SK-PN-DW = format: functional, cell-based; details: Homo sapiens
Description: SANGER: Inhibition of human SK-PN-DW cell growth in a cell viability assay.

Capan-2 = format: functional, cell-based, Homo sapiens; details: Homo sapiens, Capan-2
Description: SANGER: Inhibition of human Capan-2 cell growth in a cell viability assay.

NCI-H1563 = format: functional, cell-based, Homo sapiens; details: Homo sapiens, NCI-H1563
Description: SANGER: Inhibition of human NCI-H1563 cell growth in a cell viability assay.

ETK-1 = format: functional, cell-based, Homo sapiens; details: Homo sapiens, ETK-1
Description: SANGER: Inhibition of human ETK-1 cell growth in a cell viability assay.

NUGC-3 = format: functional, cell-based, Homo sapiens; details: Homo sapiens, NUGC-3
Description: SANGER: Inhibition of human NUGC-3 cell growth in a cell viability assay.

D283 Med = format: functional, cell-based, Homo sapiens; details: Homo sapiens, D283 Med
Description: SANGER: Inhibition of human D-283MED cell growth in a cell viability assay.

HH = format: functional, cell-based; details: Homo sapiens
Description: SANGER: Inhibition of human HH cell growth in a cell viability assay.

A3-KAW = format: functional, cell-based; details: Homo sapiens
Description: SANGER: Inhibition of human A3-KAW cell growth in a cell viability assay.

NB12 = format: functional, cell-based, Homo sapiens; details: Homo sapiens, NB12
Description: SANGER: Inhibition of human NB12 cell growth in a cell viability assay.

A2780 = format: functional, cell-based, Homo sapiens; details: Homo sapiens, A2780
Description: SANGER: Inhibition of human A2780 cell growth in a cell viability assay.

NCI-H520 = format: functional, cell-based, Homo sapiens; details: Homo sapiens, NCI-H520
Description: SANGER: Inhibition of human NCI-H520 cell growth in a cell viability assay.

HCC1569 = format: functional, cell-based, Homo sapiens; details: Homo sapiens, HCC1569
Description: SANGER: Inhibition of human HCC1569 cell growth in a cell viability assay.

SK-OV-3 = format: functional, cell-based, Homo sapiens; details: Homo sapiens, SK-OV-3
Description: SANGER: Inhibition of human SK-OV-3 cell growth in a cell viability assay.

GOTO = format: functional, cell-based, Homo sapiens; details: Homo sapiens, GOTO
Description: SANGER: Inhibition of human GOTO cell growth in a cell viability assay.

SCC-4 = format: functional, cell-based, Homo sapiens; details: Homo sapiens, SCC-4
Description: SANGER: Inhibition of human SCC-4 cell growth in a cell viability assay.

KYSE-450 = format: functional, cell-based; details: Homo sapiens
Description: SANGER: Inhibition of human KYSE-450 cell growth in a cell viability assay.

LK-2 = format: functional, cell-based, Homo sapiens; details: Homo sapiens, LK-2
Description: SANGER: Inhibition of human LK-2 cell growth in a cell viability assay.

NB14 = format: functional, cell-based; details: Homo sapiens
Description: SANGER: Inhibition of human NB14 cell growth in a cell viability assay.

Ramos-2G6-4C10 = format: functional, cell-based; details: Homo sapiens
Description: SANGER: Inhibition of human Ramos-2G6-4C10 cell growth in a cell viability assay.

LB373-MEL-D = format: functional, cell-based, Homo sapiens; details: Homo sapiens, LB373-MEL-D
Description: SANGER: Inhibition of human LB373-MEL-D cell growth in a cell viability assay.

RH-1 = format: functional, cell-based, Homo sapiens; details: Homo sapiens, RH-1
Description: SANGER: Inhibition of human RH-1 cell growth in a cell viability assay.

LB771-HNC = format: functional, cell-based, Homo sapiens; details: Homo sapiens, LB771-HNC
Description: SANGER: Inhibition of human LB771-HNC cell growth in a cell viability assay.

EFO-27 = format: functional, cell-based, Homo sapiens; details: Homo sapiens, EFO-27
Description: SANGER: Inhibition of human EFO-27 cell growth in a cell viability assay.

Ca-Ski = format: functional, cell-based; details: Homo sapiens
Description: SANGER: Inhibition of human Ca-Ski cell growth in a cell viability assay.

TYK-nu = format: functional, cell-based, Homo sapiens; details: Homo sapiens, TYK-nu
Description: SANGER: Inhibition of human TYK-nu cell growth in a cell viability assay.

CAMA-1 = format: functional, cell-based, Homo sapiens; details: Homo sapiens, CAMA-1
Description: SANGER: Inhibition of human CAMA-1 cell growth in a cell viability assay.

ACN = format: functional, cell-based, Homo sapiens; details: Homo sapiens, ACN
Description: SANGER: Inhibition of human ACN cell growth in a cell viability assay.

BHT-101 = format: functional, cell-based, Homo sapiens; details: Homo sapiens, BHT-101
Description: SANGER: Inhibition of human BHT-101 cell growth in a cell viability assay.

HCC70 = format: functional, cell-based, Homo sapiens; details: Homo sapiens, HCC70
Description: SANGER: Inhibition of human HCC70 cell growth in a cell viability assay.

NH-12 = format: functional, cell-based, Homo sapiens; details: Homo sapiens, NH-12
Description: SANGER: Inhibition of human NH-12 cell growth in a cell viability assay.

ES5 = format: functional, cell-based, Homo sapiens; details: Homo sapiens, ES5
Description: SANGER: Inhibition of human ES5 cell growth in a cell viability assay.

VMRC-RCZ = format: functional, cell-based; details: Homo sapiens
Description: SANGER: Inhibition of human VMRC-RCZ cell growth in a cell viability assay.

BE-13 = format: functional, cell-based; details: Homo sapiens
Description: SANGER: Inhibition of human BE-13 cell growth in a cell viability assay.

WM-115 = format: functional, cell-based, Homo sapiens; details: Homo sapiens, WM-115
Description: SANGER: Inhibition of human WM-115 cell growth in a cell viability assay.

U2OS = format: functional, cell-based, Homo sapiens, U-2-OS; details: Homo sapiens, U2OS
Description: SANGER: Inhibition of human U-2-OS cell growth in a cell viability assay.

TGBC24TKB = format: functional, cell-based, Homo sapiens; details: Homo sapiens, TGBC24TKB
Description: SANGER: Inhibition of human TGBC24TKB cell growth in a cell viability assay.

KOSC-2 = format: functional, cell-based, Homo sapiens; details: Homo sapiens, KOSC-2
Description: SANGER: Inhibition of human KOSC-2 cell growth in a cell viability assay.

MV4-11 = format: functional, cell-based, MV-4-11; details: Homo sapiens
Description: SANGER: Inhibition of human MV-4-11 cell growth in a cell viability assay.

TE-11 = format: functional, cell-based, Homo sapiens; details: Homo sapiens, TE-11
Description: SANGER: Inhibition of human TE-11 cell growth in a cell viability assay.

DBTRG-05MG = format: functional, cell-based, Homo sapiens; details: Homo sapiens, DBTRG-05MG
Description: SANGER: Inhibition of human DBTRG-05MG cell growth in a cell viability assay.

SAS = format: functional, cell-based, Homo sapiens; details: Homo sapiens, SAS
Description: SANGER: Inhibition of human SAS cell growth in a cell viability assay.

PANC-08-13 = format: functional, cell-based, Homo sapiens; details: Homo sapiens, PANC-08-13
Description: SANGER: Inhibition of human PANC-08-13 cell growth in a cell viability assay.

DMS-273 = format: functional, cell-based, Homo sapiens; details: Homo sapiens, DMS-273
Description: SANGER: Inhibition of human DMS-273 cell growth in a cell viability assay.

TE-6 = format: functional, cell-based, Homo sapiens; details: Homo sapiens, TE-6
Description: SANGER: Inhibition of human TE-6 cell growth in a cell viability assay.

NCI-H2126 = format: functional, cell-based, Homo sapiens; details: Homo sapiens, NCI-H2126
Description: SANGER: Inhibition of human NCI-H2126 cell growth in a cell viability assay.

MKN-45 = format: functional, cell-based, Homo sapiens; details: Homo sapiens, MKN-45
Description: SANGER: Inhibition of human MKN45 cell growth in a cell viability assay.

DoTc2-4510 = format: functional, cell-based, Homo sapiens; details: Homo sapiens, DoTc2-4510
ES4 = format: functional, cell-based, Homo sapiens; details: Homo sapiens, ES4
Description: SANGER: Inhibition of human ES4 cell growth in a cell viability assay.

HCC2157 = format: functional, cell-based; details: Homo sapiens
Description: SANGER: Inhibition of human HCC2157 cell growth in a cell viability assay.

COLO-829 = format: functional, cell-based, Homo sapiens; details: Homo sapiens, COLO-829
Description: SANGER: Inhibition of human COLO-829 cell growth in a cell viability assay.

## CCOc1nc(NC(=O)Cc2cc(OC)ccc2OC)cc(N)c1C#N
NB5
  IC50: > 10 µM
SK-PN-DW
  IC50: > 10 µM
Capan-2
  IC50: > 10 µM
NCI-H1563
  IC50: > 10 µM
ETK-1
  IC50: > 10 µM
NUGC-3
  IC50: > 10 µM
D283 Med
  IC50: > 10 µM
HH
  IC50: > 10 µM
A3-KAW
  IC50: > 10 µM
NB12
  IC50: > 10 µM
A2780
  IC50: > 10 µM
NCI-H520
  IC50: > 10 µM
HCC1569
  IC50: > 10 µM
SK-OV-3
  IC50: > 10 µM
GOTO
  IC50: > 10 µM
SCC-4
  IC50: > 10 µM
KYSE-450
  IC50: > 10 µM
LK-2
  IC50: > 10 µM
NB14
  IC50: > 10 µM
Ramos-2G6-4C10
  IC50: > 10 µM
LB373-MEL-D
  IC50: > 10 µM
RH-1
  IC50: > 10 µM
LB771-HNC
  IC50: > 10 µM
EFO-27
  IC50: > 10 µM
Ca-Ski
  IC50: > 10 µM
TYK-nu
  IC50: > 10 µM
CAMA-1
  IC50: > 10 µM
ACN
  IC50: > 10 µM
BHT-101
  IC50: > 10 µM
HCC70
  IC50: > 10 µM
NH-12
  IC50: > 10 µM
ES5
  IC50: > 10 µM
VMRC-RCZ
  IC50: > 10 µM
BE-13
  IC50: > 10 µM
WM-115
  IC50: > 10 µM
U2OS
  IC50: > 10 µM
TGBC24TKB
  IC50: > 10 µM
KOSC-2
  IC50: > 10 µM
MV4-11
  IC50: > 10 µM
TE-11
  IC50: > 10 µM
DBTRG-05MG
  IC50: > 10 µM
SAS
  IC50: > 10 µM
PANC-08-13
  IC50: > 10 µM
DMS-273
  IC50: > 10 µM
TE-6
  IC50: > 10 µM
NCI-H2126
  IC50: > 10 µM
MKN-45
  IC50: > 10 µM
DoTc2-4510
  IC50: > 10 µM
ES4
  IC50: > 10 µM
HCC2157
  IC50: > 10 µM
COLO-829
  IC50: > 10 µM

## O=c1cc(-c2cccc3c2Sc2ccccc2S3)oc(N2CCOCC2)c1 [KU-55933]
NB5
  IC50: > 10 µM
SK-PN-DW
  IC50: > 10 µM
Capan-2
  IC50: > 10 µM
NCI-H1563
  IC50: > 10 µM
ETK-1
  IC50: > 10 µM
NUGC-3
  IC50: > 10 µM
D283 Med
  IC50: > 10 µM
HH
  IC50: 8.28 µM
A3-KAW
  IC50: > 10 µM
NB12
  IC50: > 10 µM
A2780
  IC50: > 10 µM
NCI-H520
  IC50: > 10 µM
HCC1569
  IC50: > 10 µM
SK-OV-3
  IC50: > 10 µM
GOTO
  IC50: > 10 µM
SCC-4
  IC50: > 10 µM
KYSE-450
  IC50: > 10 µM
LK-2
  IC50: > 10 µM
NB14
  IC50: > 10 µM
Ramos-2G6-4C10
  IC50: > 10 µM
LB373-MEL-D
  IC50: > 10 µM
RH-1
  IC50: > 10 µM
LB771-HNC
  IC50: > 10 µM
EFO-27
  IC50: > 10 µM
Ca-Ski
  IC50: > 10 µM
TYK-nu
  IC50: > 10 µM
CAMA-1
  IC50: > 10 µM
ACN
  IC50: > 10 µM
BHT-101
  IC50: > 10 µM
HCC70
  IC50: > 10 µM
NH-12
  IC50: > 10 µM
ES5
  IC50: > 10 µM
VMRC-RCZ
  IC50: > 10 µM
BE-13
  IC50: > 10 µM
WM-115
  IC50: > 10 µM
U2OS
  IC50: > 10 µM
TGBC24TKB
  IC50: > 10 µM
KOSC-2
  IC50: > 10 µM
MV4-11
  IC50: > 10 µM
TE-11
  IC50: > 10 µM
DBTRG-05MG
  IC50: > 10 µM
SAS
  IC50: > 10 µM
PANC-08-13
  IC50: > 10 µM
DMS-273
  IC50: > 10 µM
TE-6
  IC50: > 10 µM
NCI-H2126
  IC50: > 10 µM
MKN-45
  IC50: > 10 µM
DoTc2-4510
  IC50: > 10 µM
ES4
  IC50: > 10 µM
HCC2157
  IC50: > 10 µM
COLO-829
  IC50: > 10 µM
